Molecules are shown by their SMILES.

For one test, the target named is T1, Human CYP8B1 (Homo sapiens, UniProt Q9UNU6).
T1 sequence (Q9UNU6 1-501): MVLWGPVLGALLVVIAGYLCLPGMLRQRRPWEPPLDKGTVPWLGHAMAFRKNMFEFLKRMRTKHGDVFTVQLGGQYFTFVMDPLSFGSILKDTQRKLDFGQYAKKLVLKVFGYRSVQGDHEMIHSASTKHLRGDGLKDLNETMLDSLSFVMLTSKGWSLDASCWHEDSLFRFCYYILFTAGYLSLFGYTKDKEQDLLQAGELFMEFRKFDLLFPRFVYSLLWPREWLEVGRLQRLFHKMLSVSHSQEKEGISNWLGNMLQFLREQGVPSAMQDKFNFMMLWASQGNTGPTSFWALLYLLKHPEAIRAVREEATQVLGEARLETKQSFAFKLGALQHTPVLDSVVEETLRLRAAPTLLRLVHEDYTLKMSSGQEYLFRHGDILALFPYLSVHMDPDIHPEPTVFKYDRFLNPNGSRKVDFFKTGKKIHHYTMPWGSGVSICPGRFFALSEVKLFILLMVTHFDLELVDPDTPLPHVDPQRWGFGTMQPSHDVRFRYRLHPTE
Nature of the test: Human CYP8B1 Liver Microsome Assay. To be noted: Human CYP8B1 IC50, human liver microsomes; substrate 7a-hydroxy-4-cholesten-3-one, NADPH; RapidFire MS detection of 7α,12α-dihydroxy-4-cholesten-3-one.
Experimental: To a 384 well polypropylene plate (Corning 3656), 250 nl of inhibitor in 100% DMSO (1.25% final DMSO concentration) was pre-plated using an Echo liquid handler (Labcyte Inc.). Human liver microsomes (Xenotech) were diluted in of 0.1 M phosphate buffer, pH 7.4, at a concentration of 65 μg/ml and 15 μL was added to the 384 well plate. The plates were incubated at ambient room temperature for 30 minutes. After pre-incubation with inhibitor, the reaction was initiated by adding 5 μl of substrate solution (4.0 μM 7a-hydroxy-4-cholesten-3-one (Toronto Research Chemicals), 2 mM of NADPH (Sigma), 0.1 M phosphate buffer (pH 7.4). The reaction was carried out for 45 minutes at ambient room temperature and was quenched by the addition of 50 μl of acetonitrile+0.1% vol/vol formic acid (FA)+300 nM 7α-hydroxy-4-cholesten-3-one-d7 (Toronto Research Chemicals). The plates were sealed and centrifuged at 3000 rpm for 5 minutes. Plates were loaded onto the Agilent RapidFire RF300 HTMS system, wherein samples were sipped for 600 ms, and the sip sensor detection signals the diversion of sample from the loop onto a C4 solid phase extraction (SPE) cartridge, where salts are washed off for 2500 ms with a mobile phase of water with 0.1% vol/vol FA at a flow rate of 1.5 ml/min. The column path was switched, and the sample was eluted off the cartridge and flowed into the mass spectrometer for 3000 ms with a mobile phase of acetonitrile and 0.1% vol/vol FA at a flow rate of 1.25 ml/min. The aspirator tip was washed separately with water and acetonitrile between sample aspirations (each for 600 ms) to minimize carryover contamination. Mass spectrometry was carried out using a Sciex API4000 triple quadrupole mass spectrometer (Applied Biosystems, Concord, ON, Canada) equipped with electrospray ionization (ESI) operated in the positive-ion mode. The product 7α,12α-dihydroxy-4-cholesten-3-one and internal standard 7α-hydroxy-4-cholsten-3-one-d7 were detected using multiple reaction monitoring (MRM) with Q1/Q3 transitions at m/z 417.3 to 381.3 and m/z 408.3 to 390.3, respectively, with a dwell time of 100 ms and a collision energy of 24 V for each transition. The mass spectrometer used an ESI voltage of 5000 V and a source temperature of 650° C. Extracted ion chromatograms for each transition were integrated and processed using the RapidFire Integrator software. The data for each well were normalized by monitoring product conversion with the ratio of AUCproduct/(AUCinternal standard). The data was then fitted to a four parameter logistic fit using ActivityBase Software to calculate an IC50 of the inhibitor.
Usually IC50 stands for the concentration at which inhibition is half-maximal. As to `Cc1nc2ccc(Cl)cc2c(N2CC[C@H](C(=O)N3CCc4n[nH]c(C(F)(F)F)c4C3)[C@H](C)C2)c1C#N` [Example 92, 6-chloro-2-methyl-4-[(3S,4S)-3-methyl-4-{[3-(trifluoromethyl)-2,4,6,7-tetrahydro-5H-pyrazolo[4,3-c]pyridin-5-yl]carbonyl}piperidin-1-yl]quinoline-3-carbonitrile], the IC50 stood at 35 nM.
With `N#Cc1cnc2c(F)c(Cl)ccc2c1N1CCC(C(=O)N2CCn3c(nnc3C(F)(F)F)C2)CC1` [Example 41, 7-chloro-8-fluoro-4-(4-{[3-(trifluoromethyl)-5,6-dihdyro[1,2,4]triazolo[4,3-a]pyrazin-7(8H)-yl]carbonyl}piperidin-1-yl)quinoline-3-carbonitrile], inhibition was half-maximal at 43 nM (IC50).
The same measure, in the same setting: then `COC(=O)c1nc2ccc(Cl)cc2c(N2CC[C@H](C(=O)N3CCn4c(nnc4C(F)(F)F)C3)[C@H](C)C2)c1C#N` [Example 59, methyl 6-chloro-3-cyano-4-[(3S,4S)-3-methyl-4-{[3-(trifluoromethyl)-5,6-dihydro[1,2,4]triazolo[4,3-a]pyrazin-7(8H)-yl]carbonyl}piperidin-1-yl]quinoline-2-carboxylate], with 18 nM; and `N#Cc1cnc2ccc(Cl)cc2c1N1CCC(C(=O)N2CCn3cnnc3C2)CC1` [Example 110, 6-chloro-4-[4-(5,6-dihydro[1,2,4]triazolo[4,3-a]pyrazin-7(8H)-ylcarbonyl)piperidin-1-yl]quinoline-3-carbonitrile], with 181 nM; and `N#Cc1cnc2cc(C(F)(F)F)ccc2c1N1CCC(C(=O)N2CCn3c(nnc3C(F)(F)F)C2)CC1` [Example 43, 7-(trifluoromethyl)-4-(4-{[3-(trifluoromethyl)-5,6-dihydro[1,2,4]triazolo[4,3-a]pyrazin-7(8H)-yl]carbonyl}piperidin-1-yl)quinoline-3-carbonitrile], with 6.3 nM.
`C[C@@H]1CN(c2c(C#N)cnc3c(C(F)F)cc(Cl)cc23)CC[C@@H]1C(=O)N1CCn2c(nnc2C(F)(F)F)C1` [Example 3, 6-chloro-8-(difluoromethyl)-4-[(3S,4S)-3-methyl-4-{[3-(trifluoromethyl)-5,6-dihydro[1,2,4]triazolo[4,3-a]pyrazin-7(8H)-yl]carbonyl}piperidin-1-yl]quinoline-3-carbonitrile] gave a half-maximal inhibitory concentration (IC50) of 21 nM.
On the same count and under the same terms, to `C[C@@H]1CN(c2c(C#N)cnc3ccc(Cl)cc23)CCN1C(=O)N1CCn2c(nnc2C(F)(F)F)C1` [Example 128, 6-chloro-4-[(3R)-3-methyl-4-{[3-(trifluoromethyl)-5,6-dihydro[1,2,4]triazolo[4,3-a]pyrazin-7(8H)-yl]carbonyl}piperazin-1-yl]quinoline-3-carbonitrile] belongs 2.9 nM; to `Cc1ccc2nc(C)c(C#N)c(N3CCC(C(=O)N4CCn5c(nnc5C(F)(F)F)C4)CC3)c2c1` [Example 52, 2,6-dimethyl-4-(4-(3-(trifluoromethyl)-5,6,7,8-tetrahydro-[1,2,4]triazolo[4,3-a]pyrazine-7-carbonyl)piperidin-1-yl)quinoline-3-carbonitrile], 118 nM; to `C[C@@H]1CN(c2c(C#N)cnc3cc(Br)ccc23)CC[C@@H]1C(=O)N1CCn2c(nnc2C(F)(F)F)C1` [Example 4, 7-bromo-4-[(3S,4S)-3-methyl-4-{[3-(trifluoromethyl)-5,6-dihydro[1,2,4]triazolo[4,5-a]pyrazin-7(8H)-yl]carbonyl}piperidin-1-yl]quinoline-3-carbonitrile], 0.36 nM.
`C[C@@H]1CN(c2c(C#N)cnc3ncc(Br)cc23)CC[C@@H]1C(=O)N1CCn2c(nnc2C(F)(F)F)C1` [Example 30, 6-bromo-4-[(3S,4S)-3-methyl-4-{[3-(trifluoromethyl)-5,6-dihydro[1,2,4]triazolo[4,3-a]pyrazin-7(8H)-yl]carbonyl}piperidin-1-yl]-1,8-naphthyridine-3-carbonitrile] returned a half-maximal inhibitory concentration (IC50) of 30 nM.
In the case of `C[C@@H]1CN(c2c(C#N)cnc3c(F)c(C4CC4)ccc23)CC[C@@H]1C(=O)N1CCn2c(nnc2C(F)(F)F)C1` [Example 67, 7-cyclopropyl-8-fluoro-4-[(3S,4S)-3-methyl-4-{[3-(trifluoromethyl)-5,6-dihydro[1,2,4]triazolo[4,3-a]pyrazin-7(8H)-yl]carbonyl}piperidin-1-yl]quinoline-3-carbonitrile], the IC50 stood at 0.89 nM.
`COc1nc2ccc(Cl)cc2c(N2CCC(C(=O)N3CCn4c(nnc4C(F)(F)F)C3)C(C)C2)c1C#N` (stereo not drawn) [Example 126, 6-chloro-2-methoxy-4-(3-methyl-4-{[3-(trifluoromethyl)-5,6-dihydro[1,2,4]triazolo[4,3-a]pyrazin-7(8H)-yl]carbonyl}piperidin-1-yl)quinoline-3-carbonitrile] showed an IC50 of 210 nM.
In the case of `C[C@@H]1CN(c2c(C#N)cnc3cc(C(F)(F)F)ccc23)CC[C@@H]1C(=O)N1CCn2c(nnc2C(F)(F)F)C1` [Example 24, 4-((3S,4S)-3-methyl-4-(3-(trifluoromethyl)-5,6,7,8-tetrahydro-[1,2,4]triazolo[4,3-a]pyrazine-7-carbonyl)piperidin-1-yl)-7-(trifluoromethyl)quinoline-3-carbonitrile], it took 0.4 nM to reach half-maximal inhibition (IC50).
`C=Cc1ccc2nc(C)c(C#N)c(N3CCC(C(=O)N4CCn5c(nnc5C(F)(F)F)C4)CC3)c2c1` [Example 54, 2-methyl-4-(4-(3-(trifluoromethyl)-5,6,7,8-tetrahydro-[1,2,4]triazolo[4,3-a]pyrazine-7-carbonyl)piperidin-1-yl)-6-vinylquinoline-3-carbonitrile] had an IC50 of 149 nM.
The molecule `Cc1nc2c(F)cc(F)cc2c(N2CC[C@H](C(=O)N3CCn4c(nnc4C(F)(F)F)C3)[C@H](C)C2)c1C#N` [Example 10, 6,8-difluoro-2-methyl-4-[(3S,4S)-3-methyl-4-{[3-(trifluoromethyl)-5,6-dihydro[1,2,4]triazolo[4,3-a]pyrazin-7(8H)-yl]carbonyl}piperidin-1-yl]quinoline-3-carbonitrile] came in with an IC50 of 2.8 nM.
The molecule `COc1ccc2c(N3CC[C@H](C(=O)N4CCn5c(nnc5C(F)(F)F)C4)[C@H](C)C3)c(C#N)cnc2c1` [Example 28, 7-methoxy-4-[(3S,4S)-3-methyl-4-{[3-(trifluoromethyl)-5,6-dihdyro[1,2,4]triazolo[4,3-a]pyrazin-7(8H)-yl]carbonyl}piperidin-1-yl]quinoline-3-carbonitrile] displayed an IC50 of 0.61 nM.
`Cc1nc2ccc(C3CC3)cc2c(N2CCC(C(=O)N3CCn4c(nnc4C(F)(F)F)C3)CC2)c1C#N` [Example 53, 6-cyclopropyl-2-methyl-4-(4-(3-(trifluoromethyl)-5,6,7,8-tetrahydro-[1,2,4]triazolo[4,3-a]pyrazine-7-carbonyl)piperidin-1-yl)quinoline-3-carbonitrile] displayed an IC50 of 76 nM.
For the molecule `Cc1nc2ccc(Cl)cc2c(N2CC[C@H](C(=O)N3CCc4c(n[nH]c4C(F)(F)F)C3)[C@H](C)C2)c1C#N` [Example 93, 6-chloro-2-methyl-4-[(3S,4S)-3-methyl-4-{[3-(trifluoromethyl)-2,4,5,7-tetrahydro-6H-pyrazolo[3,4-c]pyridin-6-yl]carbonyl}piperidin-1-yl]quinoline-3-carbonitrile], the IC50 came to 28 nM.
As to `N#Cc1cnc2ccc(Cl)cc2c1N1CCC(C(=O)N2CCn3c(nnc3C(F)(F)F)C2)C(C(F)(F)F)C1` (stereo not drawn) [Example 118, 6-chloro-4-[3-(trifluoromethyl)-4-{[3-(trifluoromethyl)-5,6-dihydro[1,2,4]triazolo[4,3-a]pyrazin-7(8H)-yl]carbonyl}piperidin-1-yl]quinoline-3-carbonitrile], the concentration for half-maximal inhibition (IC50) is 2.1 nM.
`C[C@@H]1CN(c2c(C#N)cnc3c(F)c(F)c(F)cc23)CC[C@@H]1C(=O)N1CCn2c(nnc2C(F)(F)F)C1` [Example 7, 6,7,8-trifluoro-4-[(3S,4S)-3-methyl-4-{[3-(trifluoromethyl)-5,6-dihydro[1,2,4]triazolo[4,3-a]pyrazin-7(8H)-yl]carbonyl}piperidin-1-yl]quinoline-3-carbonitrile] had an IC50 of 1.1 nM.
`COc1ccc2c(N3CC[C@H](C(=O)N4CCn5c(nnc5C(F)(F)F)C4)[C@H](C)C3)c(C#N)cnc2c1C` [Example 19, 7-methoxy-8-methyl-4-[(3S,4S)-3-methyl-4-{[3-(trifluoromethyl)-5,6-dihydro[1,2,4]triazolo[4,3-a]pyrazin-7(8H)-yl]carbonyl}piperidin-1-yl]quinoline-3-carbonitrile] had an IC50 of 0.2 nM.
`Cc1nc2ccc(F)cc2c(N2CCC(C(=O)N3CCn4c(nnc4C(F)(F)F)C3)CC2)c1C#N` [Example 45, 6-fluoro-2-methyl-4-(4-(3-(trifluoromethyl)-5,6,7,8-tetrahydro-[1,2,4]triazolo[4,3-a]pyrazine-7-carbonyl)piperidin-1-yl)quinoline-3-carbonitrile] registered an IC50 of 1150 nM.
Take `CC1CN(c2c(C#N)cnc3ccc(F)cc23)CCC1C(=O)N1CCn2c(nnc2C(F)(F)F)C1` (stereo not drawn) [Example 117, 6-fluoro-4-(3-methyl-4-{[3-(trifluoromethyl)-5,6-dihydro[1,2,4]triazolo[4,3-a]pyrazin-7(8H)-yl]carbonyl}piperidin-1-yl)quinoline-3-carbonitrile]: the IC50 is 1.2 nM.

The test is the same for the next values; noted with them: read-out: Human CYP8B1 IC50; human liver microsomes; substrate 7a-hydroxy-4-cholesten-3-one, NADPH; RapidFire MS detection of 7α,12α-dihydroxy-4-cholesten-3-one.
Turning to `C[C@H]1CN(c2c(C#N)cnc3ccc(C(F)(F)F)cc23)CC[C@H]1C(=O)N1CCn2c(nnc2C(F)(F)F)C1` (single isomer, unassigned) [Example 119b], the IC50 came to 0.3 nM.

These data come from patent US10414774B2, “Compound useful for altering the levels of bile acids for the treatment of diabetes and cardiometabolc disease” (Merck Sharp & Dohme Corp., priority 2016, dated 2019).
